Assay results as given in patent US12391737B2, “Soluble NPY2 receptor agonists” (Boehringer Ingelheim International GmbH, priority 2020, dated 2025).
pKi: −log10 of the molar value. *1 amine or outer side, *2 acyl side, *3 side chain or, on linkers, in order; H or OH if unused. Where a SMILES comes first, the peptide text is derived from it. Side-chain parts run from the residue outwards. The star is where a group is joined. C18 diacid = O=C(O)CCCCCCCCCCCCCCCCC(=O)*; γGlu = O=C(O)[C@H](CCC(=O)[*:2])N[*:1]; Isovaleryl = CC(C)CC(=O)*; Ahx = NCCCCCC(=O)O

Tests used:
[1] = molecular target: T1, Human Neuropeptide Y2 Receptor (Homo sapiens, UniProt P49146); assay: Radioligand binding competition assay (RLB); details: Table 3, 125I-PYY(1-36) competition; read-out: Ki
T1 construct: purchased CHEMICON HTS066M
T1 sequence (P49146 1-381): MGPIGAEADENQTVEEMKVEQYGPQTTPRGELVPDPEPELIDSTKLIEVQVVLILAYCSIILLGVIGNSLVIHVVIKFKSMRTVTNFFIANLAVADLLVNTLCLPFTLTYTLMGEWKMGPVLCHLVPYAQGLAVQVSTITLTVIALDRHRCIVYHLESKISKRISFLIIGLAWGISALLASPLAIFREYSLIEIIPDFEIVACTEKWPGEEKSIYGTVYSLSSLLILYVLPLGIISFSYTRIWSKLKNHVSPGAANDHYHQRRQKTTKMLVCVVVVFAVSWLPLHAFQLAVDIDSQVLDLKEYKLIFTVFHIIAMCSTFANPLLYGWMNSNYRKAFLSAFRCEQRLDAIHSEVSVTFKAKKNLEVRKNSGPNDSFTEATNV
Method in brief: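 Filtration competition binding on membranes from cells expressing the receptor, 0.5 μg protein/well, in 50 mM HEPES, 5 mM MgCl2, 1 mM CaCl2, pH 7.4, with 0.2% ovalbumin. Incubation ran 2 h at room temperature, followed by GF/C filtration and scintillation counting. IC50 came from nonlinear sigmoidal fits.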

[2] = Solubility determination; details: for Sol6: pH 6; for Sol7: pH 7
Method in brief: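 Solubility is derived from the ratio of reversed-phase peak areas, filtered sample over a control dissolved at 1 mg/ml in 50% acetonitrile. Peptides are agitated for 2 hours at room temperature in 0.1 M sodium diphosphate at pH 6.4 or 7.0, aiming at 10 mg/ml.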

| SMILES | pKi [1] | Sol6 [2] [mg/mL] | Sol7 [2] [mg/mL] |
| --- | --- | --- | --- |
| CC[C@H](C)[C@H](NC(=O)[C@H](CCC(=O)O)NC(=O)[C@H](CCC(=O)O)NC(=O)[C@@H]1CCCN1C(=O)[C@H](CCC(=O)O)NC(=O)[C@H](C)NC(=O)[C@H](CC(=O)O)NC(=O)[C@H](C)NC(=O)[C@H](CCC(=O)O)NC(=O)[C@@H]1CCCN1C(=O)[C@H](CCCCNC(=O)CCCCCNC(=O)CC[C@H](NC(=O)CCCCCCCCCCCCCCCCC(=O)O)C(=O)O)NC(=O)[C@H](CCC(=O)O)NC(=O)[C@@H]1CCCN1C(=O)[C@H](C)NC(=O)CC(C)C)C(=O)N[C@@H](CCC(N)=O)C(=O)N[C@@H](CCCNC(=N)N)C(=O)N[C@@H](Cc1ccc(O)cc1)C(=O)N[C@@H](Cc1ccc(O)cc1)C(=O)N[C@H](C(=O)N[C@@H](C)C(=O)N[C@@H](CC(C)C)C(=O)N[C@@H](CCCNC(=N)N)C(=O)N[C@@H](Cc1c[nH]cn1)C(=O)N[C@@H](Cc1ccc(O)cc1)C(=O)N[C@@H](Cc1ccc(O)cc1)C(=O)N[C@@H](CC(N)=O)C(=O)N[C@@H](Cc1c[nH]c2ccccc12)C(=O)N[C@@H](CC(C)C)C(=O)N[C@H](C(=O)N[C@@H](CCCNC(=N)N)C(=O)N[C@@H](CCC(N)=O)C(=O)N[C@@H](CCCNC(=N)N)C(=O)N[C@@H](Cc1ccc(O)cc1)C(N)=O)[C@@H](C)O)C(C)C [Compound 131, N{alpha-4}-(3-methylbutanoyl)-N{epsilon-7}-(6-[(4S)-4-carboxy-4-(17-carboxyheptadecanamido)butanamido]hexanoyl)-[4A,7K,9E,10A,13E,17I,18Q,22V,23A,28Y,30W,31L]-hPYY(4-36)] | 8.81 | 10.0 | >10.0 |
| CC(C)CC(=O)N[C@@H](C)C(=O)N1CCC[C@H]1C(=O)N[C@@H](CCC(=O)O)C(=O)N[C@@H](CCCCNC(=O)CCCCCNC(=O)CC[C@H](NC(=O)CCCCCCCCCCCCCCCCC(=O)O)C(=O)O)C(=O)N1CCC[C@H]1C(=O)N[C@@H](CCC(=O)O)C(=O)N[C@@H](C)C(=O)N[C@@H](CC(=O)O)C(=O)N[C@@H](C)C(=O)N[C@H](C(=O)N1CCC[C@H]1C(=O)N[C@@H](CCC(=O)O)C(=O)N[C@@H](CCC(=O)O)C(=O)N[C@@H](CC(C)C)C(=O)N[C@@H](CCC(N)=O)C(=O)N[C@@H](CCCNC(=N)N)C(=O)N[C@@H](Cc1ccc(O)cc1)C(=O)N[C@@H](Cc1ccc(O)cc1)C(=O)N[C@H](C(=O)N[C@@H](CO)C(=O)N[C@@H](CC(C)C)C(=O)N[C@@H](CCCNC(=N)N)C(=O)N[C@@H](Cc1c[nH]cn1)C(=O)N[C@@H](Cc1ccc(O)cc1)C(=O)N[C@@H](Cc1ccc(O)cc1)C(=O)N[C@@H](CC(N)=O)C(=O)N[C@@H](Cc1c[nH]c2ccccc12)C(=O)N[C@@H](CC(C)C)C(=O)N[C@H](C(=O)N[C@@H](CCCNC(=N)N)C(=O)N[C@@H](CCC(N)=O)C(=O)N[C@@H](CCCNC(=N)N)C(=O)N[C@@H](Cc1ccc(O)cc1)C(N)=O)[C@@H](C)O)C(C)C)[C@@H](C)O [Compound 132, N{alpha-4}-(3-methylbutanoyl)-N{epsilon-7}-(6-[(4S)-4-carboxy-4-(17-carboxyheptadecanamido)butanamido]hexanoyl)-[4A,7K,9E,10A,13T,18Q,22V,28Y,30W,31L]-hPYY(4-36)] | 8.56 | 8.7 | 9.3 |
| CC(C)CC(=O)N[C@@H](C)C(=O)N1CCC[C@H]1C(=O)N[C@@H](C)C(=O)N[C@@H](CCCCNC(=O)CCCCCNC(=O)CC[C@H](NC(=O)CCCCCCCCCCCCCCCCC(=O)O)C(=O)O)C(=O)N1CCC[C@H]1C(=O)N[C@@H](CCC(=O)O)C(=O)N[C@@H](CCC(=O)O)C(=O)N[C@@H](CC(=O)O)C(=O)N[C@@H](C)C(=O)N[C@@H](CCC(=O)O)C(=O)N1CCC[C@H]1C(=O)N[C@@H](CCC(=O)O)C(=O)N[C@@H](CCC(=O)O)C(=O)N[C@@H](CC(C)C)C(=O)N[C@@H](CCC(N)=O)C(=O)N[C@@H](CCCNC(=N)N)C(=O)N[C@@H](Cc1ccc(O)cc1)C(=O)N[C@@H](Cc1ccc(O)cc1)C(=O)N[C@H](C(=O)N[C@@H](CO)C(=O)N[C@@H](CC(C)C)C(=O)N[C@@H](CCCNC(=N)N)C(=O)N[C@@H](Cc1c[nH]cn1)C(=O)N[C@@H](Cc1ccc(O)cc1)C(=O)N[C@@H](Cc1ccc(O)cc1)C(=O)N[C@@H](CC(N)=O)C(=O)N[C@@H](Cc1c[nH]c2ccccc12)C(=O)N[C@@H](CC(C)C)C(=O)N[C@H](C(=O)N[C@@H](CCCNC(=N)N)C(=O)N[C@@H](CCC(N)=O)C(=O)N[C@@H](CCCNC(=N)N)C(=O)N[C@@H](Cc1ccc(O)cc1)C(N)=O)[C@@H](C)O)C(C)C [Compound 133, N{alpha-4}-(3-methylbutanoyl)-N{epsilon-7}-(6-[(4S)-4-carboxy-4-(17-carboxyheptadecanamido)butanamido]hexanoyl)-[4A,6A,7K,9E,13E,18Q,22V,28Y,30W,31L]-hPYY(4-36)] | 8.33 | 9.6 | 9.7 |
| CC(C)CC(=O)N[C@@H](C)C(=O)N1CCC[C@H]1C(=O)N[C@@H](CCC(=O)O)C(=O)N[C@@H](CCCCNC(=O)CCCCCNC(=O)CC[C@H](NC(=O)CCCCCCCCCCCCCCCCC(=O)O)C(=O)O)C(=O)N1CCC[C@H]1C(=O)N[C@@H](CCC(=O)O)C(=O)N[C@@H](CCC(=O)O)C(=O)N[C@@H](CC(=O)O)C(=O)N[C@@H](C)C(=O)N[C@H](C(=O)N1CCC[C@H]1C(=O)N[C@@H](CCC(=O)O)C(=O)N[C@@H](CCC(=O)O)C(=O)N[C@@H](CCC(N)=O)C(=O)N[C@@H](CCC(N)=O)C(=O)N[C@@H](CCCNC(=N)N)C(=O)N[C@@H](Cc1ccc(O)cc1)C(=O)N[C@@H](Cc1ccc(O)cc1)C(=O)N[C@H](C(=O)N[C@@H](CO)C(=O)N[C@@H](CC(C)C)C(=O)N[C@@H](CCCNC(=N)N)C(=O)N[C@@H](Cc1c[nH]cn1)C(=O)N[C@@H](Cc1ccc(O)cc1)C(=O)N[C@@H](Cc1ccc(O)cc1)C(=O)N[C@@H](CC(N)=O)C(=O)N[C@@H](Cc1c[nH]c2ccccc12)C(=O)N[C@@H](CC(C)C)C(=O)N[C@H](C(=O)N[C@@H](CCCNC(=N)N)C(=O)N[C@@H](CCC(N)=O)C(=O)N[C@@H](CCCNC(=N)N)C(=O)N[C@@H](Cc1ccc(O)cc1)C(N)=O)[C@@H](C)O)C(C)C)[C@@H](C)O [Compound 134, N{alpha-4}-(3-methylbutanoyl)-N{epsilon-7}-(6-[(4S)-4-carboxy-4-(17-carboxyheptadecanamido)butanamido]hexanoyl)-[4A,7K,9E,13T,17Q,18Q,22V,28Y,30W,31L]-hPYY(4-36)] | 8.55 | 10.0 | 10.0 |
| CC[C@H](C)[C@H](NC(=O)[C@H](CCC(=O)O)NC(=O)[C@H](CCC(=O)O)NC(=O)[C@@H]1CCCN1C(=O)[C@H](CCC(=O)O)NC(=O)[C@H](C)NC(=O)[C@H](C)NC(=O)[C@H](C)NC(=O)[C@H](CCC(=O)O)NC(=O)[C@@H]1CCCN1C(=O)[C@H](CCCCNC(=O)CCCCCNC(=O)CC[C@H](NC(=O)CCCCCCCCCCCCCCCCC(=O)O)C(=O)O)NC(=O)[C@H](CCC(=O)O)NC(=O)[C@@H]1CCCN1C(=O)[C@H](C)NC(=O)CC(C)C)C(=O)N[C@@H](CCC(N)=O)C(=O)N[C@@H](CCCNC(=N)N)C(=O)N[C@@H](Cc1ccc(O)cc1)C(=O)N[C@@H](Cc1ccc(O)cc1)C(=O)N[C@H](C(=O)N[C@@H](C)C(=O)N[C@@H](CC(C)C)C(=O)N[C@@H](CCCNC(=N)N)C(=O)N[C@@H](Cc1c[nH]cn1)C(=O)N[C@@H](Cc1ccc(O)cc1)C(=O)N[C@@H](Cc1ccc(O)cc1)C(=O)N[C@@H](CC(N)=O)C(=O)N[C@@H](Cc1c[nH]c2ccccc12)C(=O)N[C@@H](CC(C)C)C(=O)N[C@H](C(=O)N[C@@H](CCCNC(=N)N)C(=O)N[C@@H](CCC(N)=O)C(=O)N[C@@H](CCCNC(=N)N)C(=O)N[C@@H](Cc1ccc(O)cc1)C(N)=O)[C@@H](C)O)C(C)C [Compound 135, N{alpha-4}-(3-methylbutanoyl)-N{epsilon-7}-(6-[(4S)-4-carboxy-4-(17-carboxyheptadecanamido)butanamido]hexanoyl)-[4A,7K,9E,10A,11A,13E,17I,18Q,22V,23A,28Y,30W,31L]-hPYY(4-36)] (Isovaleryl-APEK([Ahx-γGlu-C18 diacid])PEAAAEPEEIQRYYVALRHYYNWLTRQRY-NH2) | 8.42 | 0.2 | >10.0 |
